This assay concerns root knot nematodes (Meloidogyne incognita). The assay is described as follows: systemic control of root knot nematodes on tomato roots by foliar application. Format: in vivo. As to conditions: for pest or weed control at 100 ppm / pest or weed control at 500 ppm: Meloidogyne incognita, 504 h, read-out: percent control of root disease relative to non-treated plants. How it is done:
Compounds of the present invention, prepared as described above, were tested for effectiveness in controlling root knot nematodes (Meloidogyne incognita) on tomato roots when applied to foliage of young plants.
Tomato plants, cv `Rutgers`, were grown one per pot in six an square plastic pots containing a mixture of equal parts fine sand, coarse sand, silt loam soil, and commercial potting medium. A 10,000 ppm stock solution of each test compound was prepared in either water or acetone. Samples were then diluted with additional water to give final test concentrations of 500 and 100 ppm. Tween®20 was added for a final concentration of 0.5% v/v in all test samples.
When the tomato plants were 18-21 days old the test solutions were sprayed onto the leaves and stems. Each rate of each test compound was applied to three tomato plants using four ml of spray solution per plant. One day after spraying the plants were inoculated with mature root knot nematode eggs containing J1 larvae, with 8,000 eggs per plant applied in 5 ml of water on soil at the stem base. Plants then were incubated in a growth chamber at 27° C. with all replicate pots randomized throughout the chamber. During the two weeks immediately following application of the test compounds all plants received sub-irrigation and the foliage was kept dry.
After three weeks incubation the plant roots were washed and nematode disease severity was assessed. Each root system was rated individually and a visual estimate of the percent of the root system afflicted with nematode galling was determined. Values of 0, 1, 5, 10, 20, 30, 40, 50, 60, 70, 80, or 100 percent galled roots were assigned to each plant. […] For each treatment (compound & rate) a standard deviation was calculated for the mean of the three replicate plants. Percent disease control relative to non-treated plants also was calculated.

The mark [1] stands for this setting: 100 ppm foliar spray, tomato cv Rutgers, 3 weeks, mean of three plants, non-treated generally 60% or greater.
The mark [2] stands for this setting: 500 ppm foliar spray, tomato cv Rutgers, 3 weeks, mean of three plants, non-treated generally 60% or greater.
Where [3] appears, read: 100 ppm foliar spray, tomato cv Rutgers, 3 weeks, * = no biological activity at the rate tested.
Setting [4] is: 500 ppm foliar spray, tomato cv Rutgers, 3 weeks, * = no biological activity at the rate tested.

Where “and” joins values, the source holds several entries; their conditions need not be identical. Identical values can stand only once. Counter-ions that a name gives are not always drawn. Like-named read-outs stand apart in the source and are kept apart here.

As for `N#CCNC(=O)CC(F)=C(F)F` [Example 2, 3-BUTENAMIDE, N-CYANOMETHYL)-3,4,4- TRIFLUORO-], the “Mean percent root disease (galled)” value is recorded as 73% under setting [1] and 67% under setting [2]. Besides, under setting [3], the pest or weed control at 100 ppm amounted to 8%. Moreover, the pest or weed control at 500 ppm under setting [4] was found to be 17%.

Take `CONC(=O)CC(F)=C(F)F` [Example 3, 3-BUTENAMIDE, 3,4,4-TRIFLUORO-N-METHOXY-]: the “Mean percent root disease (galled)” value under setting [1] came out at 77% and the “Mean percent root disease (galled)” value under setting [2] is given as 70%. The pest or weed control at 100 ppm under setting [3] worked out at 12%. The pest or weed control at 500 ppm under setting [4] was found to be 20%.

Regarding `NC(=O)NNC(=O)CC(F)=C(F)F` [Example 4, 3-BUTENOIC ACID, 3,4,4-TRIFLUORO-, 2-(AMINOCARBONYL)HYDRAZIDE], the “Mean percent root disease (galled)” value by setting is: under setting [1], 80%; under setting [2], 73%. Moreover, under setting [3], the pest or weed control at 100 ppm was 0%. Besides, the pest or weed control at 500 ppm under setting [4] stood at 8%.

For the compound `COc1cc(OC)nc(NC(=O)CC(F)=C(F)F)n1` [Example 5, 3-BUTENAMIDE, N-(4,6-DIMETHOXY-2-PYRIMIDINYL)- 3,4,4-TRIFLUORO-], the “Mean percent root disease (galled)” value runs as follows: under setting [1], 90%; under setting [2], 30%. The pest or weed control at 100 ppm under setting [3] is -3%. Moreover, the pest or weed control at 500 ppm under setting [4] is 66%.

Turning to `C[Si](C)(C)CN(Cc1ccccc1)C(=O)CC(F)=C(F)F` [Example 6, 3-BUTENAMIDE, 3,4,4-TRIFLUORO-N-(PHENYLMETHYL)- N-[(TRIMETHYLSILYL) METHYL]-], where the note is “foliar”, the pest or weed control at 100 ppm came to 2% and the pest or weed control at 500 ppm was 0%. The “Mean percent root disease (galled)” value (in vivo) was 87% and 85%.

With `O=C(CC(F)=C(F)F)Nc1ccc(S(=O)(=O)O)cc1` [Example 7, BENZENESULFONIC ACID, 4-[(3,4,4-TRIFLUORO-1-OXO-3- BUTENYL)AMINO]-], the “Mean percent root disease (galled)” value by setting is: under setting [1], 23%; under setting [2], 17%. Further, under setting [3], the pest or weed control at 100 ppm is 56%. Also, the pest or weed control at 500 ppm under setting [4] was found to be 69%.

As to `CS(=O)(=O)NC(=O)CC(F)=C(F)F` [Example 8, 3-BUTENAMIDE, 3,4,4-TRIFLUORO-N- (METHYLSULFONYL)-], the “Mean percent root disease (galled)” value under setting [1] turned out to be 80% and the “Mean percent root disease (galled)” value under setting [2] was 5%. Moreover, the pest or weed control at 100 ppm under setting [3] stood at 0%. Moreover, the pest or weed control at 500 ppm under setting [4] is 94%.

As for `O=C(CC(F)=C(F)F)NS(=O)(=O)C(F)(F)F` [Example 9, 3-BUTENAMIDE, 3,4,4-TRIFLUORO-, N-[(TRIFLUOROMETHYL)SULFONYL]-], the “Mean percent root disease (galled)” value runs as follows: under setting [1], 80%; under setting [2], 5%. In addition, the pest or weed control at 100 ppm under setting [3] worked out at 0%. Moreover, the pest or weed control at 500 ppm under setting [4] was 94%.

Take `O=C(CC(F)=C(F)F)NCS(=O)(=O)O` [Example 10, METHANESULFONIC ACID, [(3,4,4-TRIFLUORO-1-OXO-3- BUTENYL)AMINO]-]: the “Mean percent root disease (galled)” value under setting [1] is 20% and the “Mean percent root disease (galled)” value under setting [2] is on record as 27%. Moreover, the pest or weed control at 100 ppm under setting [3] came to 62%. In addition, under setting [4], the pest or weed control at 500 ppm was 50%.

In the case of `O=C(CC(F)=C(F)F)n1cncn1` [Example 11, 1H-1,2,4-TRIAZOLE, 1-(3,4,4-TRIFLUORO-1-OXO-3- BUTENYL)-], the “Mean percent root disease (galled)” value was found to be 80% under setting [1] and 7% under setting [2]. Besides, the pest or weed control at 100 ppm under setting [3] is 0%. Further, the pest or weed control at 500 ppm under setting [4] turned out to be 92%.

As for `O=C(CC(F)=C(F)F)n1cccn1` [Example 12, 1H-PYRAZOLE, 1-(3,4,4-TRIFLUORO-1-OXO-3- BUTENYL)-], the “Mean percent root disease (galled)” value runs as follows: under setting [1], 80%; under setting [2], 43%. Also, the pest or weed control at 100 ppm under setting [3] stood at 0%. Further, the pest or weed control at 500 ppm under setting [4] was 46%.

Consider `FC(F)=C(F)CC(=S)Nc1ccccc1` [Example 13, 3-BUTENETHIOAMIDE, 3,4,4-TRIFLUORO-N-PHENYL-], for which the “Mean percent root disease (galled)” value amounted to 40% under setting [1] and 27% under setting [2]. Moreover, the pest or weed control at 100 ppm under setting [3] amounted to 25%. Also, under setting [4], the pest or weed control at 500 ppm is 50%.

For `C[Si](C)(C)CCCOC(=O)CC(F)=C(F)F` [Example 14, 3-BUTENOIC ACID, 3,4,4-TRIFLUORO-, 3-(TRIMETHYLSILYL)PROPYL ESTER], where the note is “foliar”, the pest or weed control at 100 ppm was 4% and the pest or weed control at 500 ppm worked out at 8%. The “Mean percent root disease (galled)” value (in vivo) is 80% and 83%.

For the compound `C[Si](C)(C)CCSC(=O)CC(F)=C(F)F` [Example 15, 3-BU[…], 3,4,4-TRIFLUORO-, S-[2-(TRIMETHYLSILYL)ETHYL] ESTER], under “foliar”, the pest or weed control at 100 ppm amounted to 2% and the pest or weed control at 500 ppm was -3%. Also, the “Mean percent root disease (galled)” value (in vivo) was 90% and 85%.

Consider `O=C(CC(F)=C(F)F)Sc1ncccn1` [Example 16, 3,-BUTENETHIOIC ACID, 3,4,4-TRIFLUORO-, S-2-PYRIMIDINYL ESTER], for which the “Mean percent root disease (galled)” value is 80% under setting [1] and 50% under setting [2]. In addition, under setting [3], the pest or weed control at 100 ppm turned out to be 0%. For the same compound, the pest or weed control at 500 ppm under setting [4] was 38%.

For `O=P(O)(O)CC(F)=C(F)F` [Example 18, PHOSPHONIC ACID, (2,3,3-TRIFLUORO-2-PROPENYL)-], under “foliar”, the pest or weed control at 100 ppm was -5% and the pest or weed control at 500 ppm came to 0%. For the same compound, the “Mean percent root disease (galled)” value (in vivo) was 73% and 77%.

In the case of `O=P(O)(CC(F)=C(F)F)c1ccccc1` [Example 19, PHOSPHINIC ACID, PHENYL(2,3,3-TRIFLUORO-2- PROPENYL)-, SODIUM SALT], the “Mean percent root disease (galled)” value was 73% under setting [1] and 73% under setting [2]. The pest or weed control at 100 ppm under setting [3] stood at 0%. Further, under setting [4], the pest or weed control at 500 ppm was 0%.

With `Cc1ccccc1C(=O)CC(F)=C(F)F` [Example 20, 3-BUTEN-1-ONE, 3,4,4-TRIFLUORO-1-(2-METHYL PHENYL)-], the “Mean percent root disease (galled)” value is, setting by setting: under setting [1], 53%; under setting [2], 47%. Moreover, the pest or weed control at 100 ppm under setting [3] is 0%. Moreover, the pest or weed control at 500 ppm under setting [4] amounted to 12%.
